In article PMC4273223, “(2R,1'S,2'R)- and (2S,1'S,2'R)-3-[2-Mono(di,tri)fluoromethylcyclopropyl]alanines and their incorporation into hormaomycin analogues” (Beilstein Journal of Organic Chemistry, 2014):
Converted amounts (≈) assume the structure as drawn. Counter-ions that a name gives are not always drawn. Starred links: 1 amine or outer side, 2 acyl side, 3 side chain; linkers in the order of their positions; H or OH if unused. Positions of bridges follow the written chain, without caps; N, C: chain ends. Non-standard residues stand in square brackets, D forms with d. Residues, ends and D or L forms follow the SMILES beside them. *: point of attachment. X1 = O=C([C@@H](C[C@@H]1C[C@H]1C(F)(F)F)N[*:1])[*:2]; X2 = C/C=C\[C@H]1C[C@@H](C(=O)[*:2])N([*:1])C1; Phe(3R-Me) = C[C@H](c1ccccc1)[C@H](N)C(=O)O; d(aThr) = C[C@@H](O)[C@@H](N)C(=O)O; Tfa = O=C(C(F)(F)F)*

Tests used:
[1] = tested on: Plasmodium falciparum strain K1; assay: microbe, parasite or virus in culture
Method: (§1) The syntheses of hormaomycin (1) itself and of its all-peptide aza-analogues 60 and 61 (Figure 6) as developed by Zlatopolskiy et al., were reproduced in order to provide large enough quantities for biological tests of their antimalarial activities.
(§2) In vitro antiprotozoal activity assays: The in vitro activities against the protozoan parasites L. donovani and P. falciparum as well as cytotoxicity assessments against L6 cells were determined as reported elsewhere.

[2] = tested on: Leishmania donovani strain MHOM-ET-67/L82; assay: microbe, parasite or virus in culture; settings: for activity against L. donovani (in words): in vitro
Method: as §1, §2

[3] = tested on: L6 cells; assay: cells
Method: as §2

[4] = tested on: coryneform bacteria; design: method as in doi:10.1002/hlca.19890720303, doi:10.1002/ange.19901020122; settings: cited from earlier work
[5] = design: method as in PMID 12760691; settings: cited from earlier work

Row | Compound | IC50 against Plasmodium falciparum strain K1 [1] [µg/mL] | IC50 against Leishmania donovani strain MHOM-ET-67/L82 [2] [µg/mL] | IC50 against L6 cells [3] [µg/mL] | also measured
1 | C/C=C\[C@H]1C[C@H]2C(=O)NC[C@@H](NC(=O)OCc3ccc(C)cc3)C(=O)N[C@@H]([C@H](C)c3ccccc3)C(=O)N[C@H](C[C@@H]3C[C@H]3[N+](=O)[O-])C(=O)N[C@@H]([C@H](C)c3ccccc3)C(=O)N[C@@H]([C@@H](C)CC)C(=O)N2C1 [Compound 61] | 0.061 (≈ 0.0633 µM) | – | – | –
2 | C/C=C\[C@H]1C[C@H]2C(=O)O[C@H](C)[C@@H](NC(=O)[C@H](C[C@@H]3C[C@H]3C(F)(F)F)NC(=O)c3ccc(Cl)n3O)C(=O)N[C@@H]([C@H](C)c3ccccc3)C(=O)N[C@H](C[C@@H]3C[C@H]3C(F)(F)F)C(=O)N[C@@H]([C@H](C)c3ccccc3)C(=O)N[C@@H]([C@@H](C)CC)C(=O)N2C1 [Compound 8a] | 0.183 (≈ 0.156 µM) | 0.205 (≈ 0.174 µM) | 40 (≈ 34 µM) | activity against L. donovani (in words) [2]: showed an activity against L. donovani; activity against L. donovani lower than that of hormaomycin (1) ([2]; relative to hormaomycin (1)): 37%
3 | CCCCCCCCCCCCCCCCOP(=O)([O-])OCC[N+](C)(C)C [Miltefosine, reference compound] | – | – | – | IC50 ([2]; Leishmania donovani, read-out: IC50 against Leishmania donovani strain MHOM-ET-67/L82): 0.143 µg/mL (≈ 0.351 µM)
4 | COc1cc([C@@H]2c3cc4c(cc3[C@H](O)[C@H]3COC(=O)[C@H]23)OCO4)cc(OC)c1OC [Podophyllotoxin, reference compound] | – | – | – | IC50 ([3]; Rattus norvegicus, L6, read-out: IC50 against L6 cells): 0.006 µg/mL (≈ 0.0145 µM)
5 | C/C=C\[C@H]1C[C@H]2C(=O)O[C@H](C)[C@@H](NC(=O)C(F)(F)F)C(=O)N[C@@H]([C@H](C)c3ccccc3)C(=O)N[C@H](C[C@@H]3C[C@H]3C(F)(F)F)C(=O)N[C@@H]([C@H](C)c3ccccc3)C(=O)N[C@@H]([C@@H](C)CC)C(=O)N2C1 [Compound 59] (Tfa-[d(aThr)][Phe(3R-Me)][X1][Phe(3R-Me)]I[X2]; ester 1-C) | 0.265 | 2.37 | >90 | –
6 | C/C=C\[C@H]1C[C@H]2C(=O)O[C@H](C)[C@@H](NC(=O)OCc3ccc(C)cc3)C(=O)N[C@@H]([C@H](C)c3ccccc3)C(=O)N[C@H](C[C@@H]3C[C@H]3C(F)(F)F)C(=O)N[C@@H]([C@H](C)c3ccccc3)C(=O)N[C@@H]([C@@H](C)CC)C(=O)N2C1 [Compound 52a] | 0.042 (≈ 0.042 µM) | 2.13 (≈ 2.13 µM) | >90 | –
7 | CCN(CC)CCCC(C)Nc1ccnc2cc(Cl)ccc12 (stereo not shown) [Chloroquine, reference compound] | – | – | – | IC50 ([1]; Plasmodium falciparum, K1, read-out: IC50 against Plasmodium falciparum strain K1): 0.089 µg/mL (≈ 0.278 µM)
8 | C/C=C\[C@H]1C[C@H]2C(=O)O[C@H](C)[C@@H](NC(C)=O)C(=O)N[C@@H]([C@H](C)c3ccccc3)C(=O)N[C@H](C[C@@H]3C[C@H]3C(F)(F)F)C(=O)N[C@@H]([C@H](C)c3ccccc3)C(=O)N[C@@H]([C@@H](C)CC)C(=O)N2C1 [Compound 58] (Ac-[d(aThr)][Phe(3R-Me)][X1][Phe(3R-Me)]I[X2]; ester 1-C) | 0.151 (≈ 0.169 µM) | 1.73 (≈ 1.93 µM) | >90 | –
9 | C/C=C\[C@H]1C[C@H]2C(=O)O[C@H](C)[C@@H](NC(=O)[C@H](C[C@@H]3C[C@H]3[N+](=O)[O-])NC(=O)c3ccc(Cl)n3O)C(=O)N[C@@H]([C@H](C)c3ccccc3)C(=O)N[C@H](C[C@@H]3C[C@H]3[N+](=O)[O-])C(=O)N[C@@H]([C@H](C)c3ccccc3)C(=O)N[C@@H]([C@@H](C)CC)C(=O)N2C1 [Compound 1, hormaomycin] | – | – | – | activity against L. donovani (in words) [2]: showed an activity against L. donovani; antimalarial activity (in words) ([1]; in vitro): good and selective antimalarial activities; inhibitory effect on coryneform bacteria (in words) [4]: exceptionally selective inhibitory effect; antimalarial activity (in words) [5]: interesting antimalarial activity
